In patent US8183380B2, “2-aminoquinolines” (Hoffmann-La Roche Inc., priority 2008, dated 2012):
Structures can show the parent of a compound that is named as a salt.

Molecular target: T1, recombinant human 5-HT5A receptor (Homo sapiens, UniProt P47898)
T1 construct: expressed in transfected cells; host or cells: HEK-EBNA (Human Embryonic Kidney-EBNA) cells, transient cDNA expression; membranes
Assay: [3H]LSD radioligand binding assay
Conditions: [3H]LSD (approximately 1 nM); membranes from transiently expressed 5-HT5A receptors in HEK-EBNA cells; Ki from IC50 by Cheng-Prussoff equation
Method: A [^3H]LSD radioligand binding assay was used to determine the affinity of the compounds for the recombinant human 5-HT5A receptor, in membranes from transiently (cDNA) expressed 5-HT5A receptors in Human Embryonic Kidney-EBNA (HEK-EBNA) cells. Assay buffer consisted of Tris (50 mM) buffer containing 1 mM EGTA, 10 mM MgCl2 (pH 7.4) and 10 μM pargyline. The binding assay was carried out in 96-well-plates in the presence of [^3H]LSD (approximately 1 nM), approximately 2 μg/well of membrane protein, and 0.5 mg of Ysi-poly-1-lysine SPA beads in a final volume of 200 μl of buffer. Non-specific binding was defined using methiothepin 2 μM. Compounds were tested at 10 concentrations. All assays were conducted in duplicate and repeated at least two times. Assay plates were incubated for 120 min at room temperature before centrifugation. Bound ligand was determined using a Packard Topcount scintillation counter. IC50 values were calculated using a non-linear curve fitting program and Ki values calculated using the Cheng-Prussoff equation.

T1 sequence (P47898 whole entry): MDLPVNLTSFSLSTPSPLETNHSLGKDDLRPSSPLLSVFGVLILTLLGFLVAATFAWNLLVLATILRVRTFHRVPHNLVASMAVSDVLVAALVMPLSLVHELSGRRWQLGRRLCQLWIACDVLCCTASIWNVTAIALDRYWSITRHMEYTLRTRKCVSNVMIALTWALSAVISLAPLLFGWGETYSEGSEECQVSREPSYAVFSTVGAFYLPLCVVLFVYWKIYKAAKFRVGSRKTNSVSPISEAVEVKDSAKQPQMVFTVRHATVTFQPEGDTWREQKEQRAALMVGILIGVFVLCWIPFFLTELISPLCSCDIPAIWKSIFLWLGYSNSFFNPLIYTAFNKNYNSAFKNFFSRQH

| Compound | Ki [nM] |
| --- | --- |
| COc1cccc2c1C(Nc1ccc3cc(NC(=O)N[C@@H]4C[C@H]5CC[C@@H](C4)N5C(C)C)ccc3n1)CC2 (mixture of isomers) [Example 186, rac-1-((3-exo)-8-Isopropyl-8-aza-bicyclo[3.2.1]oct-3-yl)-3-[2-(7-methoxy-indan-1-ylamino)-quinolin-6-yl]-urea] | 5.7 |
| COc1cccc2c1C(Nc1ccc3cc(NC(=O)N(C)[C@@H]4C[C@H]5CC[C@@H](C4)N5C(C)C)ccc3n1)CC2 (mixture of isomers) [Example 188, rac-1-((3-exo)-8-Isopropyl-8-aza-bicyclo[3.2.1]oct-3-yl)-3-[2-(7-methoxy-indan-1-ylamino)-quinolin-6-yl]-1-methyl-urea] | 8.5 |
| COc1cccc2c1C(Nc1ccc3cc(NC(=O)NC4CCN(CCO)CC4)ccc3n1)CC2 (racemic) [Example 189, rac-1-[1-(2-Hydroxy-ethyl)-piperidin-4-yl]-3-[2-(7-methoxy-indan-1-ylamino)-quinolin-6-yl]-urea] | 1.8 |
| COc1cccc2c1C(Nc1ccc3cc(NC(=O)N(C)C4CCN(CC(C)(C)O)CC4)ccc3n1)CC2 (racemic) [Example 191, rac-1-[1-(2-Hydroxy-2-methyl-propyl)-piperidin-4-yl]-3-[2-(7-methoxy-indan-1-ylamino)-quinolin-6-yl]-1-methyl-urea] | 6.9 |
| COc1cccc2c1C(Nc1ccc3cc(NC(=O)C4CC4)ccc3n1)CO2 (racemic) [Example 195, rac-Cyclopropanecarboxylic acid [2-(4-methoxy-2,3-dihydro-benzofuran-3-ylamino)-quinolin-6-yl]-amide] | 7.3 |
| O=C(Nc1ccc2nc(NC3CCc4cc(F)ccc43)ccc2c1)NC1CCN(CCO)CC1 (racemic) [Example 197, rac-1-[2-(5-Fluoro-indan-1-ylamino)-quinolin-6-yl]-3-[1-(2-hydroxy-ethyl)-piperidin-4-yl]-urea] | 3.5 |
| COc1cccc2c1C(Nc1ccc3cc(NC(=O)N(C)C4CCN(CCO)CC4)ccc3n1)CC2 (racemic) [Example 206, rac-1-[1-(2-Hydroxy-ethyl)-piperidin-4-yl]-3-[2-(7-methoxy-indan-1-ylamino)-quinolin-6-yl]-1-methyl-urea] | 6.7 |
| COc1cccc2c1C(Nc1ccc3cc(NC(=O)NC(C)C)ccc3n1)CC2 (single isomer, unassigned; (-)) [Example 13, (−)-1-Isopropyl-3-[2-(7-methoxy-indan-1-ylamino)-quinolin-6-yl]-urea] | 0.9 |
| CC(C)NC(=O)Nc1ccc2nc(N[C@@H]3CCc4ccccc43)ccc2c1 [Example 3, 1-[2-((R)-Indan-1-ylamino)-quinolin-6-yl]-3-isopropyl-urea] | 2.5 |
| O=C(Nc1ccc2nc(N[C@@H]3CCc4ccccc43)ccc2c1)NC1CCCCC1 [Example 5, 1-Cyclohexyl-3-[2-((R)-indan-1-ylamino)-quinolin-6-yl]-urea] | 2.9 |
| CNC(=O)Nc1ccc2nc(N[C@@H]3CCc4ccccc43)ccc2c1 [Example 7, 1-[2-((R)-Indan-1-ylamino)-quinolin-6-yl]-3-methyl-urea] | 3.4 |
| CC(C)(C)NC(=O)Nc1ccc2nc(N[C@@H]3CCc4ccccc43)ccc2c1 [Example 8, 1-tert-Butyl-3-[2-((R)-indan-1-ylamino)-quinolin-6-yl]-urea] | 10.9 |
| NC(=O)Nc1ccc2nc(N[C@@H]3CCc4ccccc43)ccc2c1 [Example 9, [2-((R)-Indan-1-ylamino)-quinolin-6-yl]-urea] | 2.9 |
| COCCNC(=O)Nc1ccc2nc(N[C@@H]3CCc4ccccc43)ccc2c1 [Example 17, 1-[2-((R)-Indan-1-ylamino)-quinolin-6-yl]-3-(2-methoxy-ethyl)-urea] | 7 |
| CN(C)CCNC(=O)Nc1ccc2nc(N[C@@H]3CCc4ccccc43)ccc2c1 [Example 18, 1-(2-Dimethylamino-ethyl)-3-[2-((R)-indan-1-ylamino)-quinolin-6-yl]-urea] | 7.3 |
| O=C(Nc1ccc2nc(N[C@@H]3CCc4ccccc43)ccc2c1)NC1CCOCC1 [Example 19, 1-[2-((R)-Indan-1-ylamino)-quinolin-6-yl]-3-(tetrahydro-pyran-4-yl)-urea] | 4 |
| CN1CCC(NC(=O)Nc2ccc3nc(N[C@@H]4CCc5ccccc54)ccc3c2)CC1 [Example 20, 1-[2-((R)-Indan-1-ylamino)-quinolin-6-yl]-3-(1-methyl-piperidin-4-yl)-urea] | 1.8 |
| O=C(Nc1ccc2nc(N[C@@H]3CCc4ccccc43)ccc2c1)NC1CC1 [Example 21, 1-Cyclopropyl-3-[2-((R)-indan-1-ylamino)-quinolin-6-yl]-urea] | 3.9 |
| O=C(NCC1CC1)Nc1ccc2nc(N[C@@H]3CCc4ccccc43)ccc2c1 [Example 23, 1-Cyclopropylmethyl-3-[2-((R)-indan-1-ylamino)-quinolin-6-yl]-urea] | 4.7 |

| Compound | Ki [nM] |
| --- | --- |
| O=C(Nc1ccc2nc(N[C@@H]3CCc4ccccc43)ccc2c1)NC1CC2CCC1C2 (stereo partly drawn) [Example 26, 1-Bicyclo[2.2.1]hept-2-yl-3-[2-((R)-indan-1-ylamino)-quinolin-6-yl]-urea] | 4.8 |
| CN(CCNC(=O)Nc1ccc2nc(N[C@@H]3CCc4ccccc43)ccc2c1)C1CC1 [Example 32, 1-[2-(Cyclopropyl-methyl-amino)-ethyl]-3-[2-((R)-indan-1-ylamino)-quinolin-6-yl]-urea] | 8.2 |
| O=C(Nc1ccc2nc(N[C@@H]3CCc4ccccc43)ccc2c1)NC1CCNCC1 [Example 39, 1-[2-((R)-Indan-1-ylamino)-quinolin-6-yl]-3-piperidin-4-yl-urea] | 3.9 |
| O=C(Nc1ccc2nc(N[C@@H]3CCc4ccccc43)ccc2c1)NC1CCN(C2CC2)CC1 [Example 41, 1-(1-Cyclopropyl-piperidin-4-yl)-3-[2-((R)-indan-1-ylamino)-quinolin-6-yl]-urea] | 4.1 |
| CC(C)N1CCC(NC(=O)Nc2ccc3nc(N[C@@H]4CCc5ccccc54)ccc3c2)CC1 [Example 42, 1-[2-((R)-Indan-1-ylamino)-quinolin-6-yl]-3-(1-isopropyl-piperidin-4-yl)-urea] | 2.4 |
| COCCN1CCC(NC(=O)Nc2ccc3nc(N[C@@H]4CCc5ccccc54)ccc3c2)CC1 [Example 43, 1-[2-((R)-Indan-1-ylamino)-quinolin-6-yl]-3-[1-(2-methoxy-ethyl)-piperidin-4-yl]-urea] | 2.5 |
| CSCCN1CCC(NC(=O)Nc2ccc3nc(N[C@@H]4CCc5ccccc54)ccc3c2)CC1 [Example 48, 1-[2-((R)-Indan-1-ylamino)-quinolin-6-yl]-3-[1-(2-methylsulfanyl-ethyl)-piperidin-4-yl]-urea] | 7.7 |
| O=C(Nc1ccc2nc(N[C@@H]3CCc4ccccc43)ccc2c1)NC1CCN(CCC(F)(F)F)CC1 [Example 63, 1-[2-((R)-Indan-1-ylamino)-quinolin-6-yl]-3-[1-(3,3,3-trifluoro-propyl)-piperidin-4-yl]-urea] | 10.4 |
| CN(C)S(=O)(=O)Nc1ccc2nc(N[C@@H]3CCc4ccccc43)ccc2c1 [Example 66, N′-{2-[(1R)-2,3-dihydro-1H-inden-1-ylamino]quinolin-6-yl}-N,N-dimethylsulfamide] | 5.6 |
| NS(=O)(=O)Nc1ccc2nc(N[C@@H]3CCc4ccccc43)ccc2c1 [Example 72, N-{2-[(1R)-2,3-dihydro-1H-inden-1-ylamino]quinolin-6-yl}sulfamide hydrochloride] | 8.4 |
| O=S(=O)(Nc1ccc2nc(N[C@@H]3CCc4ccccc43)ccc2c1)N1CCCC1 [Example 73, Pyrrolidine-1-sulfonic acid [2-((R)-indan-1-ylamino)-quinolin-6-yl]-amide] | 3.2 |
| O=S(=O)(Nc1ccc2nc(N[C@@H]3CCc4ccccc43)ccc2c1)N1CCC(F)(F)C1 [Example 74, 3,3-Difluoro-pyrrolidine-1-sulfonic acid [2-((R)-indan-1-ylamino)-quinolin-6-yl]-amide] | 8.9 |
| O=S(=O)(Nc1ccc2nc(N[C@@H]3CCc4ccccc43)ccc2c1)N1CCOCC1 [Example 76, Morpholine-4-sulfonic acid [2-((R)-indan-1-ylamino)-quinolin-6-yl]-amide] | 9.9 |
| O=S(=O)(Nc1ccc2nc(N[C@@H]3CCc4ccccc43)ccc2c1)N1CCSCC1 [Example 78, Thiomorpholine-4-sulfonic acid [2-((R)-indan-1-ylamino)-quinolin-6-yl]-amide] | 7 |
| O=S(=O)(Nc1ccc2nc(N[C@@H]3CCc4ccccc43)ccc2c1)N1CCC2(CC1)OCCO2 [Example 82, 1,4-Dioxa-8-aza-spiro[4.5]decane-8-sulfonic acid [2-((R)-indan-1-ylamino)-quinolin-6-yl]-amide] | 22.2 |
| CN(C1CC1)S(=O)(=O)Nc1ccc2nc(N[C@@H]3CCc4ccccc43)ccc2c1 [Example 85, N-cyclopropyl-N′-{2-[(1R)-2,3-dihydro-1H-inden-1-ylamino]quinolin-6-yl}-N-methylsulfamide] | 9.3 |
| O=S(=O)(Nc1ccc2nc(N[C@@H]3CCc4ccccc43)ccc2c1)N1C[C@@H]2C[C@H]1CO2 [Example 88, (1S,4S)-2-Oxa-5-aza-bicyclo[2.2.1]heptane-5-sulfonic acid [2-((R)-indan-1-ylamino)-quinolin-6-yl]-amide] | 2.5 |
| COc1cccc2c1C(Nc1ccc3cc(NS(=O)(=O)N4C[C@@H]5C[C@H]4CO5)ccc3n1)CCC2 (stereo partly drawn) [Example 91, (1S,4S)-2-Oxa-5-aza-bicyclo[2.2.1]heptane-5-sulfonic acid [2-(8-methoxy-1,2,3,4-tetrahydro-naphthalen-1-ylamino)-quinolin-6-yl]-amide] | 6.8 |
